What is called IC50 is the point on the concentration scale where inhibition reaches its midpoint. One may read the melting point as the temperature, or range, at which the solid turns liquid.

Several values for one entry are separate records, joined by “and”; a condition that tells them apart may be missing. Equal values may be shown once. Read-outs that look alike come from different tables or passages of the source.

For series [1], the system named is human breast carcinoma cells (MCF-7). Description: MTT cytotoxicity assay, MCF-7. Format: cell-based. The settings on record: read-out: IC50 (μM) MCF-7. Background: Tetrazolium assays rely on reduction of a dye to a coloured formazan, in cell work by metabolically active cells.
For series [2], the system named is human lung carcinoma cells (A549). Description: MTT cytotoxicity assay, A549. It is filed as cell-based. The settings on record: read-out: IC50 (μM) A549.
Series [3] has as its system human colorectal cells (HCT-116). The experiment in a line: MTT cytotoxicity assay, HCT-116. The settings on record: read-out: IC50 (μM) HCT-116. Format: cell-based.
Series [4] deals with normal human gastric epithelial cells (GES-1). The experiment in a line: MTT cytotoxicity assay, GES-1 normal cells. It is filed as cell-based. Conditions: read-out: IC50 (μM) GES-1.
Where [5] appears, read: Homo sapiens, MCF7, 48 h, MTT, 48 h, means ± SD of three experiments.
[6] abbreviates: A549, MTT, 48 h, means ± SD of three experiments.
Where [7] appears, read: HCT-116, MTT, 48 h, means ± SD of three experiments.
Setting [8] is: GES1, MTT, 48 h, normal cells, means ± SD of three experiments, “-” not active.
The mark [9] stands for this setting: MTT, 48 h, means ± SD of three experiments.

In the case of `C=C(C)[C@@H]1CC[C@]2(CO)CC[C@]3(C)[C@H](CC[C@@H]4[C@@]5(C)CC[C@H](O)C(C)(C)[C@@H]5CC[C@]43C)[C@@H]12` [Compound 1, lup-20(29)-ene-3β,28-diol, reference compound], the IC50 in series [1] (Homo sapiens, MCF7, 48 h) worked out at 19.4 ± 0.93 µM; in series [2] (A549, 48 h), 27.1 ± 1.2 µM; in series [3] (HCT-116, 48 h), 30 ± 1.22 µM; in series [4] (GES1, 48 h), 108 ± 4.34 µM.
For `C=C(C)[C@@H]1CC[C@]2(/C=N/NC(=O)Nc3ccc(Cl)cc3)CC[C@]3(C)C(CCC4[C@@]5(C)CC[C@H](O)C(C)(C)C5CC[C@]43C)C12` (stereo partly drawn) [Compound 7a, Lup-20(29)-ene-3β-ol-28-N-(4-chlorophenyl)semicarbazide], the melting point is 227.2 to 228.3 °C. Besides, in series [1] (setting [5]), the 50% inhibitory concentration (IC50) was found to be 8.57 ± 0.6 µM. Moreover, in series [2] (setting [6]), the 50% inhibitory concentration (IC50) stood at 18.1 ± 1.03 µM. Moreover, the IC50 in series [3] (setting [7]) turned out to be 34.8 ± 1.25 µM. For the same compound, in series [4] (setting [8]), the IC50 was found to be 70.8 ± 2.12 µM.
`C=C(C)[C@@H]1CC[C@]2(/C=N/NC(=O)Nc3ccc(C#N)cc3)CC[C@]3(C)C(CCC4[C@@]5(C)CC[C@H](O)C(C)(C)C5CC[C@]43C)C12` (stereo partly drawn) [Compound 7b, Lup-20(29)-ene-3β-ol-28-N-(4-cyanophenyl)semicarbazide] returned a melting point of 236.5 to 238 °C. Moreover, the IC50 in series [1] (setting [5]) is under 10 µM. Besides, in series [1] (setting [9]), the IC50 amounted to 7.88 ± 0.54 µM. Also, the IC50 in series [2] (setting [6]) worked out at 25.1 ± 1.01 µM. In addition, the IC50 in series [3] (setting [7]) came to 51.1 ± 2.52 µM. The IC50 in series [4] (setting [8]) amounted to 85.4 ± 3.37 µM.
Compound `C=C(C)[C@@H]1CC[C@]2(/C=N/NC(=O)Nc3ccc(OC)cc3)CC[C@]3(C)C(CCC4[C@@]5(C)CC[C@H](O)C(C)(C)C5CC[C@]43C)C12` (stereo partly drawn) [Compound 7c, Lup-20(29)-ene-3β-ol-28-N-(4-methoxyphenyl)semicarbazide] showed a melting point of 214.2 to 216 °C. For the same compound, in series [1] (setting [5]), the IC50 is 44.4 ± 2.26 µM. For the same compound, in series [2] (setting [6]), the IC50 is over 80 µM. For the same compound, in series [3] (setting [7]), the IC50 is over 80 µM. For the same compound, the IC50 in series [4] (setting [8]) was over 80 µM.
Take `C=C(C)[C@@H]1CC[C@]2(/C=N/NC(=O)Nc3ccc(C(F)(F)F)cc3)CC[C@]3(C)C(CCC4[C@@]5(C)CC[C@H](O)C(C)(C)C5CC[C@]43C)C12` (stereo partly drawn) [Compound 7d, Lup-20(29)-ene-3β-ol-28-N-(4-(trifluoromethyl)phenyl)semicarbazide]: the melting point was 221.5 to 222.7 °C. Also, in series [1] (setting [5]), the IC50 amounted to 15.3 ± 1.23 µM. Besides, the half-maximal inhibitory concentration (IC50) in series [2] (setting [6]) was determined as 29.4 ± 1.12 µM. Moreover, the 50% inhibitory concentration (IC50) in series [3] (setting [7]) came to 28.6 ± 1.36 µM. The half-inhibitory concentration (IC50) in series [4] (setting [8]) was found to be 168 ± 4.59 µM.
In turn, `C=C(C)[C@@H]1CC[C@]2(/C=N/NC(=O)Nc3cccc(C(F)(F)F)c3)CC[C@]3(C)C(CCC4[C@@]5(C)CC[C@H](O)C(C)(C)C5CC[C@]43C)C12` (stereo partly drawn) [Compound 7e, Lup-20(29)-ene-3β-ol-28-N-(3-(trifluoromethyl)phenyl)semicarbazide] came in with a melting point of 223.4 to 225.1 °C. Further, the 50% inhibitory concentration (IC50) in series [1] (setting [5]) is under 10 µM. Also, the 50% inhibitory concentration (IC50) in series [1] (setting [9]) is 5.86 µM and 5.96 µM. In series [2] (setting [6]), the 50% inhibitory concentration (IC50) is 43.8 ± 1.44 µM. Besides, the IC50 in series [3] (setting [7]) was determined as 26.1 ± 1.17 µM. Besides, in series [4] (setting [8]), the IC50 worked out at 196 ± 5.82 µM.
Compound `C=C(C)[C@@H]1CC[C@]2(/C=N/NC(=O)Nc3cccc(C)c3)CC[C@]3(C)C(CCC4[C@@]5(C)CC[C@H](O)C(C)(C)C5CC[C@]43C)C12` (stereo partly drawn) [Compound 7f, Lup-20(29)-ene-3β-ol-8-N-(m-tolyl)semicarbazide] came in with a melting point of 224.2 to 226 °C. Moreover, in series [1] (setting [5]), the 50% inhibitory concentration (IC50) was determined as 26.8 ± 1.34 µM. The half-maximal inhibitory concentration (IC50) in series [2] (setting [6]) was over 80 µM. Further, the IC50 in series [3] (setting [7]) was over 80 µM. In addition, in series [4] (setting [8]), the IC50 is over 80 µM.
For the compound `C=C(C)[C@@H]1CC[C@]2(/C=N/NC(=O)Nc3ccc(Cl)c(C(F)(F)F)c3)CC[C@]3(C)C(CCC4[C@@]5(C)CC[C@H](O)C(C)(C)C5CC[C@]43C)C12` (stereo partly drawn) [Compound 7g, Lup-20(29)-ene-3β-ol-28-N-((3-trifluoromethyl-4-chloro)phenyl)semicarbazide], the melting point lay in the range of 211.6 to 213 °C. Moreover, in series [1] (setting [5]), the half-maximal inhibitory concentration (IC50) was under 10 µM. Also, in series [1] (setting [9]), the IC50 amounted to 7.06 ± 0.44 µM. Besides, in series [2] (setting [6]), the 50% inhibitory concentration (IC50) was 33.6 ± 1.15 µM. In addition, in series [3] (setting [7]), the half-maximal inhibitory concentration (IC50) is 13.5 ± 0.74 µM. In addition, the IC50 in series [4] (setting [8]) was 145 ± 3.88 µM.
On to `C=C(C)[C@@H]1CC[C@]2(/C=N/NC(=S)Nc3ccc(F)cc3)CC[C@]3(C)C(CCC4[C@@]5(C)CC[C@H](O)C(C)(C)C5CC[C@]43C)C12` (stereo partly drawn) [Compound 8a, Lup-20(29)-ene-3β-ol-28-N-(4-fluorophenyl)thiosemicarbazide], for which the melting point is 209.3 to 211 °C. In series [1] (setting [5]), the IC50 was under 10 µM. Besides, the half-inhibitory concentration (IC50) in series [1] (setting [9]) worked out at 9.8 ± 0.58 µM. For the same compound, the concentration for half-maximal inhibition (IC50) in series [2] (setting [6]) is 24.1 ± 1.11 µM. The IC50 in series [3] (setting [7]) came out at 32.5 ± 1.26 µM. Moreover, the IC50 in series [4] (setting [8]) came out at 177 ± 5.02 µM.
Compound `C=C(C)[C@@H]1CC[C@]2(/C=N/NC(=S)Nc3ccc(Cl)cc3)CC[C@]3(C)C(CCC4[C@@]5(C)CC[C@H](O)C(C)(C)C5CC[C@]43C)C12` (stereo partly drawn) [Compound 8b, Lup-20(29)-ene-3β-ol-28-N-(4-chlorophenyl)thiosemicarbazide] came in with a melting point of 212.5 to 214 °C. The IC50 in series [1] (setting [5]) was under 10 µM. In series [1] (setting [9]), the half-maximal inhibitory concentration (IC50) was 7.79 ± 0.45 µM. In series [2] (setting [6]), the IC50 amounted to 18.7 ± 0.98 µM. In series [3] (setting [7]), the half-maximal inhibitory concentration (IC50) stood at 49.5 ± 1.44 µM. Moreover, in series [4] (setting [8]), the concentration for half-maximal inhibition (IC50) came out at 203 ± 5.74 µM.
The compound `C=C(C)[C@@H]1CC[C@]2(/C=N/NC(=S)Nc3ccc(C)cc3)CC[C@]3(C)C(CCC4[C@@]5(C)CC[C@H](O)C(C)(C)C5CC[C@]43C)C12` (stereo partly drawn) [Compound 8c, Lup-20(29)-ene-3β-ol-28-N-(p-tolyl)thiosemicarbazide] had a melting point of 206.4 to 208.2 °C. In addition, the half-inhibitory concentration (IC50) in series [1] (setting [5]) was 28.6 ± 1.06 µM. Further, in series [2] (setting [6]), the IC50 is over 80 µM. Also, in series [3] (setting [7]), the IC50 worked out at 46.3 ± 1.77 µM. In addition, in series [4] (setting [8]), the IC50 was over 80 µM.
As to `C=C(C)[C@@H]1CC[C@]2(/C=N/NC(=S)Nc3ccc(OC)cc3)CC[C@]3(C)C(CCC4[C@@]5(C)CC[C@H](O)C(C)(C)C5CC[C@]43C)C12` (stereo partly drawn) [Compound 8d, Lup-20(29)-ene-3β-ol-28-N-(4-methoxyphenyl)thiosemicarbazide], the melting point was 203.7 to 205.2 °C. In addition, in series [1] (setting [5]), the IC50 was found to be 38.4 ± 1.58 µM. The IC50 in series [2] (setting [6]) was over 80 µM. Moreover, in series [3] (setting [7]), the half-maximal inhibitory concentration (IC50) was over 80 µM. Also, in series [4] (setting [8]), the IC50 is over 80 µM.
Regarding `C=C(C)[C@@H]1CC[C@]2(/C=N/NC(=S)Nc3ccc(C(C)(C)C)cc3)CC[C@]3(C)C(CCC4[C@@]5(C)CC[C@H](O)C(C)(C)C5CC[C@]43C)C12` (stereo partly drawn) [Compound 8e, Lup-20(29)-ene-3β-ol-28-N-(4-tert-butylphenyl)thiosemicarbazide], the melting point lay within 216.8 to 218.2 °C. Also, the IC50 in series [1] (setting [5]) turned out to be 46.4 ± 3.42 µM. In addition, the IC50 in series [2] (setting [6]) was over 80 µM. Moreover, in series [3] (setting [7]), the concentration for half-maximal inhibition (IC50) was over 80 µM. Further, the half-inhibitory concentration (IC50) in series [4] (setting [8]) was over 80 µM.
For `C=C(C)[C@@H]1CC[C@]2(/C=N/NC(=S)Nc3ccc(Cl)c(Cl)c3)CC[C@]3(C)C(CCC4[C@@]5(C)CC[C@H](O)C(C)(C)C5CC[C@]43C)C12` (stereo partly drawn) [Compound 8g, Lup-20(29)-ene-3β-ol-28-N-(3,4-dichlorophenyl)thiosemicarbazide], the melting point was 219.8 to 221.8 °C. For the same compound, the IC50 in series [1] (setting [5]) amounted to 11.3 ± 1.07 µM. Further, in series [2] (setting [6]), the IC50 stood at 16.9 ± 1.05 µM. Moreover, in series [3] (setting [7]), the concentration for half-maximal inhibition (IC50) was found to be 20.2 ± 0.87 µM. The 50% inhibitory concentration (IC50) in series [4] (setting [8]) is 174 ± 5.14 µM.
In the case of `CO[C@@]12[C@H](COC(N)=O)C3=C(C(=O)C(C)=C(N)C3=O)N1C[C@@H]1N[C@@H]12` [Mitomycin, Mitomycin C, reference compound], the half-inhibitory concentration (IC50) worked out at 15.9 ± 1.03 µM in series [1] (setting [5]), 12.8 ± 1.08 µM in series [2] (setting [6]), 11.4 ± 0.87 µM in series [3] (setting [7]) and 20.5 ± 1.02 µM in series [4] (setting [8]).

These data come from paper PMC8587101, “Design and Synthesis of Novel Betulin Derivatives Containing Thio-/Semicarbazone Moieties as Apoptotic Inducers through Mitochindria-Related Pathways” (Molecules, 2021).
